Assays:
PKC-ι = biological target: T1, PKC-ι (Homo sapiens, UniProt P41743); parameters: dose or concentration left out as unconfirmed; settings: cited from earlier work
T1 sequence (P41743 1-596): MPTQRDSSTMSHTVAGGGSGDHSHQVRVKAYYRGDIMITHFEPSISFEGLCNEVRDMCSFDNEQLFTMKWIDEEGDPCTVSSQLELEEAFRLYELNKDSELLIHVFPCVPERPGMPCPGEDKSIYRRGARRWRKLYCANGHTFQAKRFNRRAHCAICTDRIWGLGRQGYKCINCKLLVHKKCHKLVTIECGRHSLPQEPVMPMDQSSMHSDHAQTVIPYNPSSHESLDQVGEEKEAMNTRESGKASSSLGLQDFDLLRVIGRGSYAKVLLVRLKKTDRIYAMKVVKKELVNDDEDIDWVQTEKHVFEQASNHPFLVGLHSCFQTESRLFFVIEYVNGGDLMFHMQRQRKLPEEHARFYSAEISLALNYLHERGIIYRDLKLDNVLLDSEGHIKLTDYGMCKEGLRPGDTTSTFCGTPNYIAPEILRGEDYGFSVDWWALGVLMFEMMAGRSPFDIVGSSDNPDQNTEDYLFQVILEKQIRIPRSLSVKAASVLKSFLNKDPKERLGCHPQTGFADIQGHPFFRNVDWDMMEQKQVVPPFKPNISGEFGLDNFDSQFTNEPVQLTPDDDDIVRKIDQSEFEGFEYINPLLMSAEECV

SK-MEL-2 cells [1] = assay: Growth inhibition assay (cell counts over 72 h); assay type: cell-based, human; settings: for inhibition at 0.05 µM / inhibition at 0.1 µM / inhibition at 0.2 µM / inhibition at 0.5 µM / inhibition at 1 µM: Homo sapiens; for inhibition at 0.05 µM: 50 nM; for inhibition at 0.1 µM: 100 nM; for inhibition at 0.2 µM: 200 nM; for inhibition at 0.5 µM: 500 nM
Description: For the growth inhibition assays, the PCS-200-013 cells or SK-MEL-2 cells were seeded at 40,000 cells/well into 6-well-plates and treated with the respective inhibitor. Cells in each well were counted after 24 h from the time of treating with the inhibitor at the desired concentration. Each inhibitor had triplicate plates which were counted at 24th, 48th and 72nd hours after initiating the inhibitor treatment. Inhibitors were added after 24 h of seeding point. The inhibitor concentrations were none (control), 50 nM, 100 nM, 200 nM, 500 nM and 1 μM. The cells were counted using a hemocytometer. The same procedure was followed for inhibitors ICA-1, ACPD, 3,4-diamino-2,7-naphthalenedisulfonic acid DNDA and 8-hydroxy-1, 3,6-naphthalenetrisulfonic acid (ζ-Stat).
Cell growth of malignant melanoma cells was reduced by applying PKC-ι and PKC-ζ inhibitors (FIGS. 3A-3D and 4A-4B). Both PKC-ι, and PKC-ζ heavily contributed to the migration of metastasized melanoma cells and migration can be suppressed using ICA-1 and ACPD. For example, Tables 1-2 provide a summary of the percentage inhibition of growth of SK-MEL-2 cells (Table 1 for ICA-1 and Table 2 for ACPD) as a function of time over 72 h period. Both ACPD and ICA-1 have 40% effectiveness on cell proliferation inhibition at the highest concentration used. Inhibition is increased upon increasing the concentration.

[2] = tested on: MAPK, Akt2, FGFR 1/2/3/4, mTOR, GSK3B, IRAK1/4, JAK 1/2, MEK1, ERK1/2, JNK 1/2, PKA, Src, ROCK2 and PI3K; settings: cited from earlier work
MeWo cells = assay: Western blot of protein levels; assay type: cell-based, human
other PKC isoforms = settings: cited from earlier work
SK-MEL-2 cells [3] = assay: WST-1 assay for cell viability and cytotoxicity; assay type: cell-based, human; settings: treated at IC50, 3 days
Description: (§1) Approximately 4×10^3 cells (PCS-200-013, SK-MEL-2 and MeWo) were cultured in a 96 well plate. […] This IC50 was obtained based on the cell viability counts in the previous experiments. Additional doses of sterile water or inhibitor were supplied every 24 h during 3 day incubation period. At the end of 3 day treatment, media were removed and fresh media (100 μL) were added with 4-[3-(4-iodophenyl)-2-(4-nitropheny))-2H-5-tetrazolio]-1,3-benzene disulfonate (WST-1) reagent (10 μL) to each well. The absorbance was measured at 450 nm for every 0.5 hour up to 3 hours using the Synergy HT microplate reader from Biotek (Winooski, Vt.).
(§2) WST-1 assay was performed to determine the in-vitro cytotoxicity of ACPD and DNDA on normal and malignant cell lines. Measured absorbance at 450 nm is directly proportional to the number of cells present. Cells produce a water soluble formazan with WST-1 as a result of their mitochondrial dehydrogenase activity. WST-1 assay is preferred over 3-(4,S-Dimethyl-2-thiazolyl)-2, 5-diphenyl-2Htetrazolium bromide (MTT) test since MTT needs to add acidic isopropanol to dissolve formazan which gives an additional toxicity to cells.

PCS-200-013 normal cells = assay: WST-1 assay for cell viability and cytotoxicity; assay type: cell-based, human; settings: treated at IC50, 3 days
Description: as §1, §2

[4] = tested on: malignant melanoma cell lines (SK-MEL-2 and MeWo); assay: Western blot of ζ-Stat treated samples; assay type: cell-based, human
Description: The change of levels of phosphorylated PKC-ι, total PKC-ι (FIG. 18A) and change of levels of phosphorylated PKC-ζ, total PKC-ζ (FIG. 18B) are shown for the ζ-Stat treated (2.5 μM) samples of malignant melanoma cell lines (SK-MEL-2 and MeWo) after the end of 3rd day of treatments. β-actin was used as the internal loading control in each Western blot. Whole cell lysate of 40 μg was separated on 7.5% SDS-PAGE and the Western blots of above proteins were obtained. N=3 experiments were performed in each case.

CC(=O)C1=C(O)CCC1=O [ACPD, 2-acetyl-1,3-cyclopentanedione]
inhibition of PKC-ι (PKC-ι): approximately 40%
inhibition at 0.05 µM (SK-MEL-2 cells [1]; SK-MEL-2, 24 h, Day 1): 1%
inhibition at 0.1 µM (SK-MEL-2 cells [1]; SK-MEL-2, 24 h, Day 1): 11%
inhibition at 0.2 µM (SK-MEL-2 cells [1]; SK-MEL-2, 24 h, Day 1): 19%
inhibition at 0.5 µM (SK-MEL-2 cells [1]; SK-MEL-2, 24 h, Day 1): 26%
inhibition at 1 µM (SK-MEL-2 cells [1]; SK-MEL-2, 24 h, Day 1): 36%
inhibition at 0.05 µM (SK-MEL-2 cells [1]; SK-MEL-2, 48 h, Day 2): 4%
inhibition at 0.1 µM (SK-MEL-2 cells [1]; SK-MEL-2, 48 h, Day 2): 10%
inhibition at 0.2 µM (SK-MEL-2 cells [1]; SK-MEL-2, 48 h, Day 2): 23%
inhibition at 0.5 µM (SK-MEL-2 cells [1]; SK-MEL-2, 48 h, Day 2): 30%
inhibition at 1 µM (SK-MEL-2 cells [1]; SK-MEL-2, 48 h, Day 2): 35%
inhibition at 0.05 µM (SK-MEL-2 cells [1]; SK-MEL-2, 72 h, Day 3): 5%
inhibition at 0.1 µM (SK-MEL-2 cells [1]; SK-MEL-2, 72 h, Day 3): 9%
inhibition at 0.2 µM (SK-MEL-2 cells [1]; SK-MEL-2, 72 h, Day 3): 20%
inhibition at 0.5 µM (SK-MEL-2 cells [1]; SK-MEL-2, 72 h, Day 3): 26%
inhibition at 1 µM (SK-MEL-2 cells [1]; SK-MEL-2, 72 h, Day 3): 37%
effectiveness on cell proliferation inhibition (SK-MEL-2 cells [1]; at the highest concentration used): 40%
inhibition of other kinases [2]: does not inhibit
decrease of Bcl-2 levels (MeWo cells): 25%
decrease of CD44 (MeWo cells): 34%
decrease of PARP levels (MeWo cells): 24%
decrease of Vimentin levels (MeWo cells): 38%
decrease of β-catenin (MeWo cells): 16%
increase of Caspase-3 levels (MeWo cells): 17%
increase of E-cadherin levels (MeWo cells): 35%
increase of NF-KB p65 levels (MeWo cells): 69%
increase of cleaved PARP levels (MeWo cells): 18%
effect on other PKC isoforms (other PKC isoforms): without affecting
WST-1 absorbance at 450 nm, effect (SK-MEL-2 cells [3]): did not show a significant effect
WST-1 absorbance at 450 nm, effect on normal cells (PCS-200-013 normal cells): did not show a significant effect

Nc1c(S(=O)(=O)O)cc2cc(S(=O)(=O)O)ccc2c1N [DNDA, 3,4-diamino-2,7-naphthalenedisulfonic acid]
decrease of Bcl-2 levels (MeWo cells): 32%
decrease of CD44 (MeWo cells): 43%
decrease of Vimentin levels (MeWo cells): 45%
decrease of β-catenin (MeWo cells): 21%
increase of Caspase-3 levels (MeWo cells): 39%
increase of E-cadherin levels (MeWo cells): 29%
increase of NF-KB p65 levels (MeWo cells): 89%
increase of PARP levels (MeWo cells): 9%
increase of cleaved PARP levels (MeWo cells): 10%
WST-1 absorbance at 450 nm, effect (SK-MEL-2 cells [3]): significant decrease in absorption
WST-1 absorbance at 450 nm, effect on normal cells (PCS-200-013 normal cells): did not show a significant effect

O=S(=O)(O)c1cc(O)c2c(S(=O)(=O)O)cc(S(=O)(=O)O)cc2c1 [ζ-Stat, 8-hydroxy-1,3,6-naphthalenetrisulfonic acid]
apoptosis of malignant melanoma cells [4]: induces the apoptosis
phosphorylated PKC-ι level ([4]; 2.5 μM, end of 3rd day): did not change significantly
reduction of pPKC-ζ level ([4]; 2.5 μM, end of 3rd day): 37%
reduction of total PKC-ζ level ([4]; 2.5 μM, end of 3rd day): 42%
total PKC-ι protein level ([4]; 2.5 μM, end of 3rd day): did not change significantly

Reference: patent US11065266B2, “Method of treating melanoma using an inhibitor of an atypical protein kinase C” (UNIVERSITY OF SOUTH FLORIDA, priority 2016, dated 2021)
